# Source: US20110039721A1, “METHOD FOR PREDICTION ABOUT CARCINOGENICITY OF SUBSTANCE IN RODENT” (Chemicals Evaluation and Research Institute, priority 2007, published 2011)
# Where two headings read alike, the source gives them in different places.
# Legend:
# [1] = tested on: mRNA expressed from the genes (A) to (D) in rat liver; experiment: Behavior of genes (mRNA expression level, oligo-DNA microarray) in rat liver after 28-day oral administration; type: in vivo
# Description: A test solution was prepared by dissolving each of the carcinogens and the non-carcinogens shown in Tables 2 to 6 in the corresponding solvent shown in Tables 2 to 6. Each of the thus prepared test solutions and the solvents used for the preparation was administered by oral gavage to rats in each group. As the rats, male rats (F344 SPF rats) at 5 weeks of age obtained from Charles River Laboratories Japan, Inc. were used. The animals were divided into groups, each containing four individuals. The volume of the solvent administered to the vehicle control group was set to the same volume as that of the test solution administered to the carcinogen administration group or the non-carcinogen administration group. The administration of the test solution or the solvent was performed once daily for 28 days. Apiece was excised from the liver of each of the rats after a lapse of 28 days from the initiation of the administration, and the total RNA was extracted and purified.
# The expression level of mRNA was compared between each of the chemical substance administration groups and the corresponding vehicle control group, and genes that satisfy the requirements described in (A) to (D) were selected, respectively.
# The case where the expression level of mRNA in the carcinogen administration group or the non-carcinogen administration group is 1.5 times or more or 1/1.5 or less of the expression level of the corresponding mRNA expressed in the control group was determined to be significant. In this connection, the determination as to whether or not the change is significant was performed by taking into consideration the direction of increase or decrease in the expression level. In the case where the direction of increase or decrease is different as compared with the case where another carcinogen was administered, the change was determined to be not significant.
# rodent = details: cited from earlier work
# [2] = gene group (A), Unigene No. Rn.167075
# [3] = gene group (C), Unigene No. Rn.120914
# [4] = classification of the substance (C+/C−)
structure (smiles),measurement,setting,value
"O=C(c1ccccc1)C(O)c1ccccc1 (stereo not drawn) [TS038, Benzoin]","Behavior of gene caused by administration of chemical substance, Gene No. 4846","[1]; gene group (A), Unigene No. Rn.144554",−
same,"Behavior of gene caused by administration of chemical substance, Gene No. 2026",[1]; [2],+
same,"Behavior of gene caused by administration of chemical substance, Gene No. 4218",[1]; [2],−
same,"Behavior of gene caused by administration of chemical substance, Gene No. 6182","[1]; gene group (A), Unigene No. Rn.5834",−
same,"Behavior of gene caused by administration of chemical substance, Gene No. 5600","[1]; gene group (A), Unigene No. Rn.9836",−
same,"Behavior of gene caused by administration of chemical substance, Gene No. 1494","[1]; gene group (B), Unigene No. Rn.1430",−
same,"Behavior of gene caused by administration of chemical substance, Gene No. 2045","[1]; gene group (B), Unigene No. Rn.19329",−
same,"Behavior of gene caused by administration of chemical substance, Gene No. 2203","[1]; gene group (B), Unigene No. Rn.21240",−
same,"Behavior of gene caused by administration of chemical substance, Gene No. 533","[1]; gene group (C), Unigene No. Rn.106184",−
same,"Behavior of gene caused by administration of chemical substance, Gene No. 725","[1]; gene group (C), Unigene No. Rn.108075",−
same,"Behavior of gene caused by administration of chemical substance, Gene No. 1163","[1]; gene group (C), Unigene No. Rn.11766",−
same,"Behavior of gene caused by administration of chemical substance, Gene No. 4973","[1]; gene group (C), Unigene No. Rn.118529",+
same,"Behavior of gene caused by administration of chemical substance, Gene No. 4095","[1]; gene group (C), Unigene No. Rn.119024",+
same,"Behavior of gene caused by administration of chemical substance, Gene No. 1334",[1]; [3],−
same,"Behavior of gene caused by administration of chemical substance, Gene No. 6620",[1]; [3],−
same,"Behavior of gene caused by administration of chemical substance, Gene No. 6303","[1]; gene group (C), Unigene No. Rn.123063",+
same,"Behavior of gene caused by administration of chemical substance, Gene No. 5878","[1]; gene group (C), Unigene No. Rn.143213",−
same,"Behavior of gene caused by administration of chemical substance, Gene No. 1131","[1]; gene group (C), Unigene No. Rn.144946",−
same,"Behavior of gene caused by administration of chemical substance, Gene No. 1562","[1]; gene group (C), Unigene No. Rn.14744",−
same,"Behavior of gene caused by administration of chemical substance, Gene No. 1741","[1]; gene group (C), Unigene No. Rn.1647",−
same,"Behavior of gene caused by administration of chemical substance, Gene No. 893","[1]; gene group (C), Unigene No. Rn.164817",−
same,"Behavior of gene caused by administration of chemical substance, Gene No. 6026","[1]; gene group (C), Unigene No. Rn.167685",+
same,"Behavior of gene caused by administration of chemical substance, Gene No. 154","[1]; gene group (C), Unigene No. Rn.185941",+
same,"Behavior of gene caused by administration of chemical substance, Gene No. 1993","[1]; gene group (C), Unigene No. Rn.18728",+
same,"Behavior of gene caused by administration of chemical substance, Gene No. 813","[1]; gene group (C), Unigene No. Rn.201760",−
same,"Behavior of gene caused by administration of chemical substance, Gene No. 2494","[1]; gene group (C), Unigene No. Rn.23969",−
same,"Behavior of gene caused by administration of chemical substance, Gene No. 2546","[1]; gene group (C), Unigene No. Rn.24561",+
same,"Behavior of gene caused by administration of chemical substance, Gene No. 3776","[1]; gene group (C), Unigene No. Rn.43232",−
same,"Behavior of gene caused by administration of chemical substance, Gene No. 3929","[1]; gene group (C), Unigene No. Rn.4620",−
same,"Behavior of gene caused by administration of chemical substance, Gene No. 1119","[1]; gene group (C), Unigene No. Rn.9757",+
same,"Behavior of gene caused by administration of chemical substance, Gene No. 6742","[1]; gene group (C), Unigene No. Rn.9779",−
same,"Behavior of gene caused by administration of chemical substance, Gene No. 5634","[1]; gene group (C), Unigene No. Rn.9862",+
same,"Behavior of gene caused by administration of chemical substance, Gene No. 5726","[1]; gene group (D), Unigene No. Rn.9939",−
same,Carcinogenicity,rodent; [4],C−
"ClC(Cl)Cl [TS056, Chloroform]","Behavior of gene caused by administration of chemical substance, Gene No. 154","[1]; rat, in vivo",+
same,"Behavior of gene caused by administration of chemical substance, Gene No. 533","[1]; rat, in vivo",+
same,"Behavior of gene caused by administration of chemical substance, Gene No. 725","[1]; rat, in vivo",+
same,"Behavior of gene caused by administration of chemical substance, Gene No. 813","[1]; rat, in vivo",+
same,"Behavior of gene caused by administration of chemical substance, Gene No. 893","[1]; rat, in vivo",+
same,"Behavior of gene caused by administration of chemical substance, Gene No. 1119","[1]; rat, in vivo",+
same,"Behavior of gene caused by administration of chemical substance, Gene No. 1131","[1]; rat, in vivo",+
same,"Behavior of gene caused by administration of chemical substance, Gene No. 1163","[1]; rat, in vivo",+
same,"Behavior of gene caused by administration of chemical substance, Gene No. 1334","[1]; rat, in vivo",+
same,"Behavior of gene caused by administration of chemical substance, Gene No. 1494","[1]; rat, in vivo",+
same,"Behavior of gene caused by administration of chemical substance, Gene No. 1562","[1]; rat, in vivo",+
same,"Behavior of gene caused by administration of chemical substance, Gene No. 1741","[1]; rat, in vivo",+
same,"Behavior of gene caused by administration of chemical substance, Gene No. 1993","[1]; rat, in vivo",+
same,"Behavior of gene caused by administration of chemical substance, Gene No. 2026","[1]; rat, in vivo",+
same,"Behavior of gene caused by administration of chemical substance, Gene No. 2045","[1]; rat, in vivo",−
same,"Behavior of gene caused by administration of chemical substance, Gene No. 2203","[1]; rat, in vivo",−
same,"Behavior of gene caused by administration of chemical substance, Gene No. 2494","[1]; rat, in vivo",+
same,"Behavior of gene caused by administration of chemical substance, Gene No. 2546","[1]; rat, in vivo",+
same,"Behavior of gene caused by administration of chemical substance, Gene No. 3776","[1]; rat, in vivo",+
same,"Behavior of gene caused by administration of chemical substance, Gene No. 3929","[1]; rat, in vivo",+
same,"Behavior of gene caused by administration of chemical substance, Gene No. 4095","[1]; rat, in vivo",+
same,"Behavior of gene caused by administration of chemical substance, Gene No. 4218","[1]; rat, in vivo",−
same,"Behavior of gene caused by administration of chemical substance, Gene No. 4846","[1]; rat, in vivo",−
same,"Behavior of gene caused by administration of chemical substance, Gene No. 4973","[1]; rat, in vivo",+
same,"Behavior of gene caused by administration of chemical substance, Gene No. 5600","[1]; rat, in vivo",−
same,"Behavior of gene caused by administration of chemical substance, Gene No. 5634","[1]; rat, in vivo",+
same,"Behavior of gene caused by administration of chemical substance, Gene No. 5726","[1]; rat, in vivo",−
same,"Behavior of gene caused by administration of chemical substance, Gene No. 5878","[1]; rat, in vivo",+
same,"Behavior of gene caused by administration of chemical substance, Gene No. 6026","[1]; rat, in vivo",+
same,"Behavior of gene caused by administration of chemical substance, Gene No. 6182","[1]; rat, in vivo",−
same,"Behavior of gene caused by administration of chemical substance, Gene No. 6303","[1]; rat, in vivo",+
same,"Behavior of gene caused by administration of chemical substance, Gene No. 6620","[1]; rat, in vivo",+
same,"Behavior of gene caused by administration of chemical substance, Gene No. 6742","[1]; rat, in vivo",+
same,Carcinogenicity,rodent; [4],C+
"O=[N+]([O-])c1ccc2ccc3cccc4ccc1c2c34 [TS064, 1-Nitropyrene]",Behavior of gene caused by administration of chemical substance,"[1]; Gene No. 154, Rn.185941, group (C)",−
same,Behavior of gene caused by administration of chemical substance,"[1]; Gene No. 533, Rn.106184, group (C)",−
same,Behavior of gene caused by administration of chemical substance,"[1]; Gene No. 725, Rn.108075, group (C)",−
same,Behavior of gene caused by administration of chemical substance,"[1]; Gene No. 813, Rn.201760, group (C)",−
same,Behavior of gene caused by administration of chemical substance,"[1]; Gene No. 893, Rn.164817, group (C)",−
same,Behavior of gene caused by administration of chemical substance,"[1]; Gene No. 1119, Rn.9757, group (C)",−
same,Behavior of gene caused by administration of chemical substance,"[1]; Gene No. 1131, Rn.144946, group (C)",−
same,Behavior of gene caused by administration of chemical substance,"[1]; Gene No. 1163, Rn.11766, group (C)",−
same,Behavior of gene caused by administration of chemical substance,"[1]; Gene No. 1334, Rn.120914, group (C)",−
same,Behavior of gene caused by administration of chemical substance,"[1]; Gene No. 1494, Rn.1430, group (B)",−
same,Behavior of gene caused by administration of chemical substance,"[1]; Gene No. 1562, Rn.14744, group (C)",−
same,Behavior of gene caused by administration of chemical substance,"[1]; Gene No. 1741, Rn.1647, group (C)",−
same,Behavior of gene caused by administration of chemical substance,"[1]; Gene No. 1993, Rn.18728, group (C)",−
same,Behavior of gene caused by administration of chemical substance,"[1]; Gene No. 2026, Rn.167075, group (A)",−
same,Behavior of gene caused by administration of chemical substance,"[1]; Gene No. 2045, Rn.19329, group (B)",−
same,Behavior of gene caused by administration of chemical substance,"[1]; Gene No. 2203, Rn.21240, group (B)",+
same,Behavior of gene caused by administration of chemical substance,"[1]; Gene No. 2494, Rn.23969, group (C)",−
same,Behavior of gene caused by administration of chemical substance,"[1]; Gene No. 2546, Rn.24561, group (C)",−
same,Behavior of gene caused by administration of chemical substance,"[1]; Gene No. 3776, Rn.43232, group (C)",−
same,Behavior of gene caused by administration of chemical substance,"[1]; Gene No. 3929, Rn.4620, group (C)",−
same,Behavior of gene caused by administration of chemical substance,"[1]; Gene No. 4095, Rn.119024, group (C)",−
same,Behavior of gene caused by administration of chemical substance,"[1]; Gene No. 4218, Rn.167075, group (A)",−
same,Behavior of gene caused by administration of chemical substance,"[1]; Gene No. 4846, Rn.144554, group (A)",−
same,Behavior of gene caused by administration of chemical substance,"[1]; Gene No. 4973, Rn.118529, group (C)",−
same,Behavior of gene caused by administration of chemical substance,"[1]; Gene No. 5600, Rn.9836, group (A)",−
same,Behavior of gene caused by administration of chemical substance,"[1]; Gene No. 5634, Rn.9862, group (C)",−
same,Behavior of gene caused by administration of chemical substance,"[1]; Gene No. 5726, Rn.9939, group (D)",−
same,Behavior of gene caused by administration of chemical substance,"[1]; Gene No. 5878, Rn.143213, group (C)",−
same,Behavior of gene caused by administration of chemical substance,"[1]; Gene No. 6026, Rn.167685, group (C)",−
same,Behavior of gene caused by administration of chemical substance,"[1]; Gene No. 6182, Rn.5834, group (A)",−
same,Behavior of gene caused by administration of chemical substance,"[1]; Gene No. 6303, Rn.123063, group (C)",−
same,Behavior of gene caused by administration of chemical substance,"[1]; Gene No. 6620, Rn.120914, group (C)",−
same,Behavior of gene caused by administration of chemical substance,"[1]; Gene No. 6742, Rn.9779, group (C)",−
same,Carcinogenicity,rodent; classification C+/C−,C+
